Patent US9133115B2 (ACHILLION PHARMACEUTICALS, INC., priority 2008, dated 2015)

What follows are compounds tested on HCV replicon (assay: HCV replicon replication assay (NPT ELISA) in Huh-7 replicon-containing cells). Conditions: Hepatitis C virus, 72 h; HCV replicon in Huh-7 cells, three days incubation; read-out: EC50.
Format: cell-based
Outline: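 Replication was scored by capture ELISA of neomycin phosphotransferase, whose level tracks replicon replication, after graded compound treatment. The cells were Huh-7 harbouring an HCV-IRES/neo/EMCV-IRES/NS3–NS5B/3′-NTR replicon, plated at 6000-7500 cells/well and dosed 24 h later at 60-70% confluence; interferon alpha was the positive control.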
C=CC1C[C@]1(NC(=O)[C@@H]1C[C@@H](Oc2cc(-c3ccccc3)nc3cc(OC)ccc23)CN1C(=O)[C@@H](CC(=O)N1CCCCC1)CC(C)C)C(=O)NS(=O)(=O)C1CC1 (stereo partly drawn) [Compound 91, (2S,4R)-N-((1R,2R)-1-(cyclopropyl-sulfonylcarbamoyl)-2-vinylcyclopropyl)-4-(7-methoxy-2-phenylquinolin-4-yloxy)-1-((R)-4-methyl-2-(2-oxo-2-(piperidin-1-yl)ethyl)pentano-yl)pyrrolidine-2-carboxamide] gave an EC50 of under 1000 nM. With C=C[C@@H]1C[C@]1(NC(=O)[C@@H]1C[C@@H](Oc2cc(-c3ccccc3)nc3cc(OC)ccc23)CN1C(=O)[C@@H](CC(=O)N1CCCCC1)C(C)(C)C)C(=O)NS(=O)(=O)C1CCCCC1 [Compound 92, (2S,4R)-1-((S)-2-tert-butyl-4-oxo-4-(piperidin-1-yl)butanoyl)-N-((1R,2S)-1-(cyclo-hexylsulfonyl-carbamoyl)-2-vinyl-cyclopropyl)-4-(7-methoxy-2-phenylquinolin-4-yloxy)pyrrolidine-2-carboxamide] the EC50 was under 1000 nM. Work on C=C[C@@H]1C[C@]1(NC(=O)[C@@H]1C[C@@H](OC(=O)Nc2ccccc2C(=O)OC)CN1C(=O)[C@@H](CC(=O)N1CCCCC1)C(C)(C)C)C(=O)NS(=O)(=O)C1CC1 [Compound 93, methyl 2-(((3R,5S)-1-((S)-2-tert-butyl-4-oxo-4-(piperidin-1-yl)butanoyl)-5-((1R,2S)-1-(cyclo-propylsulfonyl-carbamoyl)-2-vinylcyclopropyl-carbamoyl)pyrrolidin-3-yloxy)carbonyl-amino)benzoate] yielded an EC50 of under 1000 nM. C=C[C@@H]1C[C@]1(NC(=O)[C@@H]1C[C@@H](OC(=O)Nc2ccccc2C(=O)OCC)CN1C(=O)[C@@H](CC(=O)N1CCCCC1)C(C)(C)C)C(=O)NS(=O)(=O)C1CC1 [Compound 94] showed an EC50 of under 1000 nM. Work on C=C[C@@H]1C[C@]1(NC(=O)[C@@H]1C[C@@H](OC(=O)Nc2cccc(Oc3ccccc3)c2)CN1C(=O)[C@@H](CC(=O)N1CCCCC1)C(C)(C)C)C(=O)NS(=O)(=O)C1CC1 [Compound 95, (3R,5S)-1-((S)-2-tert-butyl-4-oxo-4-(piperidin-1-yl)butanoyl)-5-((1R,2S)-1-(cyclopropylsulfonyl-carbamoyl)-2-vinylcyclopropyl-carbamoyl)pyrrolidin-3-yl 3-phenoxyphenyl-carbamate] yielded an EC50 of 1000 to 10000 nM. With C=C[C@@H]1C[C@]1(NC(=O)[C@@H]1C[C@@H](Oc2cc(-c3csc(NC(C)C)n3)nc3cc(OC)ccc23)CN1C(=O)[C@@H](CC(=O)N1CCCCC1)C(C)(C)C)C(=O)NS(=O)(=O)C1CC1 [Compound 96, (2S,4R)-1-((S)-2-tert-butyl-4-oxo-4-(piperidin-1-yl)butanoyl)-N-((1R,2S)-1-(cyclopropylsulfonyl-carbamoyl)-2-vinylcyclopropyl)-4-(2-(2-(isopropyl-amino)thiazol-4-yl)-7-methoxyquinolin-4-yloxy)pyrrolidine-2-carboxamide] the EC50 was under 1000 nM. COc1ccc2c(O[C@@H]3C[C@@H](C(=O)NC4(C(=O)NS(=O)(=O)C5CC5)CCC4)N(C(=O)[C@@H](CC(=O)N4CCCCC4)C(C)(C)C)C3)cc(-c3ccccc3)nc2c1 [Compound 97, (2S,4R)-1-((S)-2-tert-butyl-4-oxo-4-(piperidin-1-yl)butanoyl)-N-(1-(cyclopropylsulfonyl-carbamoyl)cyclo-butyl)-4-(7-methoxy-2-phenylquinolin-4-yloxy)pyrrolidine-2-carboxamide] was tested, and the EC50 was 1000 to 10000 nM. COc1ccc2c(O[C@@H]3C[C@@H](C(=O)NC4(C(=O)NS(=O)(=O)C5CC5)CCCC4)N(C(=O)[C@@H](CC(=O)N4CCCCC4)C(C)(C)C)C3)cc(-c3ccccc3)nc2c1 [Compound 98, (2S,4R)-1-((S)-2-tert-butyl-4-oxo-4-(piperidin-1-yl)butanoyl)-N-(1-(cyclopropylsulfonyl-carbamoyl)cyclo-pentyl)-4-(7-methoxy-2-phenylquinolin-4-yloxy)pyrrolidine-2-carboxamide] was tested, and the EC50 was 1000 to 10000 nM. C=C[C@@H]1C[C@]1(NC(=O)[C@@H]1C[C@@H](OC(=O)n2c3ccccc3c3ccccc32)CN1C(=O)[C@@H](CC(=O)N1CCCCC1)C(C)(C)C)C(=O)NS(=O)(=O)C1CC1 [Compound 99, (3R,5S)-1-((S)-2-tert-butyl-4-oxo-4-(piperidin-1-yl)butanoyl)-5-((1R,2S)-1-(cyclo-propylsulfonyl-carbamoyl)-2-vinyl-cyclopropyl-carbamoyl)pyrrolidin-3-yl 9H-carbazole-9-carboxylate] gave an EC50 of under 1000 nM. C=C[C@@H]1C[C@]1(NC(=O)[C@@H]1C[C@@H](Oc2cc(-c3csc(NC(C)C)n3)nc3cc(OC)ccc23)CN1C(=O)[C@@H](CC(=O)N1CCOCC1)C(C)(C)C)C(=O)NS(=O)(=O)C1CC1 [Compound 100, (2S,4R)-1-((S)-2-tert-butyl-4-morpholino-4-oxobutanoyl)-N-((1R,2S)-1-(cyclopropylsulfonyl-carbamoyl)-2-vinylcyclopropyl)-4-(2-(2-(isopropyl-amino)thiazol-4-yl)-7-methoxyquinolin-4-yloxy)pyrrolidine-2-carboxamide] showed an EC50 of under 1000 nM. C=C[C@@H]1C[C@]1(NC(=O)[C@@H]1C[C@@H](Oc2nccc3cc(OC)ccc23)CN1C(=O)[C@@H](CC(=O)N1CCCCC1)C(C)(C)C)C(=O)NS(=O)(=O)C1CC1 [Compound 101, (2S,4R)-1-((S)-2-tert-butyl-4-oxo-4-(piperidin-1-yl)butanoyl)-N-((1R,2S)-1-(cyclo-propylsulfonyl-carbamoyl)-2-vinylcyclopropyl)-4-(6-methoxyisoquinolin-1-yloxy)pyrrolidine-2-carboxamide] was tested, and the EC50 was under 1000 nM. For C=C[C@@H]1C[C@]1(NC(=O)[C@@H]1C[C@@H](Oc2cc(-c3ccccc3)nc3cc(OC)ccc23)CN1C(=O)[C@@H](CC(=O)N1CCCCC1)CC(C)(C)C)C(=O)NS(=O)(=O)C1CC1 [Compound 104, (2S,4R)-N-((1R,2S)-1-(cyclopropyl-sulfonylcarbamoyl)-2-vinylcyclopropyl)-1-((R)-4,4-dimethyl-2-(2-oxo-2-(piperidin-1-yl)ethyl)pentanoyl)-4-(7-methoxy-2-phenylquinolin-4-yloxy)pyrrolidine-2-carboxamide], the EC50 was under 1000 nM. Compound C=C[C@@H]1C[C@]1(NC(=O)[C@@H]1C[C@@H](Oc2cc(-c3ccccc3)nc3cc(OC)ccc23)CN1C(=O)[C@@H](CC(=O)N1CCCCC1)C(C)(C)C)C(=O)NS(=O)(=O)C1CCCC1 [Compound 105, (2S,4R)-1-((S)-2-tert-butyl-4-oxo-4-(piperidin-1-yl)butanoyl)-N-((1R,2S)-1-(cyclopentyl-sulfonylcarbamoyl)-2-vinylcyclopropyl)-4-(7-methoxy-2-phenylquinolin-4-yloxy)pyrrolidine-2-carboxamide] has an EC50 of under 1000 nM. For C=C[C@@H]1C[C@]1(NC(=O)[C@@H]1C[C@@H](Oc2cc(-c3ccccc3)nc3cc(OC)ccc23)CN1C(=O)[C@@H](CC(=O)N1CCCCC1)C(C)(C)C)C(=O)NS(=O)(=O)C1(C)CC1 [Compound 106, (2S,4R)-1-((S)-2-tert-butyl-4-oxo-4-(piperidin-1-yl)butanoyl)-4-(7-methoxy-2-phenylquinolin-4-yloxy)-N-((1R,2S)-1-(1-methylcyclopropyl-sulfonylcarbamoyl)-2-vinylcyclo-propyl)pyrrolidine-2-carboxamide], the EC50 was under 1000 nM.
